{"source": "patent US20240293405A1", "about": "“(1H-PYRROLO[2,3-B]PYRIDIN-1-YL)PYRIMIDIN-2-YL-AMINO-PHENYL-ACRYLAMIDE INHIBITORS OF EGFR FOR USE IN THE TREATMENT OF BRAIN TUMORS” (Dana-Farber Cancer Institute, Inc., priority 2021, published 2024)", "key": {"[1]": {"experiment": "Pharmacokinetics in rats (IV, PO)", "format": "in vivo, rat", "conditions": "for bioavailability: independent of dose", "source_text": "Exposure was generally dose proportional."}, "[2]": {"test_system": "EGFRvIII, ERK1/2 and S6RP phosphorylation", "experiment": "Phosphorylation in CPEvIII neurosphere cultures (western blot)", "format": "cell-based, mouse", "conditions": "CPEvIII neurospheres, 1 day, dose-dependent", "protocol": "FIG. 5B is the western blot analysis of primary mouse CPEvIII cells that were treated with Compound 1 for 1 day.\nWestern blot analysis was performed as described previously (Ni, J., et al. (2012). Cancer discovery 2, 425-433; Ni, J., et al. (2016). Nature medicine 22, 723-726; Ni, J., et al. (2017). Neurooncology 19, 22-30). Anti-pEGFR-1068 (#3777), anti-pEGFR-1173 (#4407), anti-EGFR (#4267), anti-pERK1/2 (#9101), anti-ERK1/2 (#9102), anti-S6RP (#2211), and anti-S6RP (#2217) antibodies were purchased from Cell Signaling Technology. Anti-a-Tubulin antibody was purchased from Sigma.\nNeural stem cells (NSCs) from E14.5 embryonic mice (Cdkn2a-null; Ptenf/f) striata were isolated and cultured as previously described (Rietze, R. L., and Reynolds, B. A. (2006). Methods in enzymology 419, 3-23). NSCs were infected twice with adenovirus expressing Cre recombinase (AdCre; MOI50) (University of Iowa) to knock out floxed Pten. Cells were then transduced with retrovirus expressing EGFRvIII (pBabe-puro-EGFRvIII) (from Dr. Charles Stiles, DFCI) and selected with 1 μg/ml puromycin. The resulting cells (Cdkn2anull; Ptennull; EGFRvIII, denominated CPEvIII) can form a glioma after grafted into the mouse brain. Tumors were then isolated and mechanically dissociated for expansion in vitro and in vivo. […]"}, "[3]": {"experiment": "Oral rat 4-week toxicity study with toxicokinetics", "format": "in vivo, Sprague-Dawley rats", "protocol": "Compound 1 (0, 10, 30, and 100 mg/kg/day) was given orally, once daily by gavage to male and female Sprague-Dawley rats for up to 28 days. Morbidity, associated with marked body weight loss, necessitated termination of dosing in the high-dose group on Days 12/13. At this time, 5/sex in the high-dose group were taken to necropsy and 5/sex were started on recovery for the remainder of the study.\nThere were no obvious sex differences or accumulation (Table 13).\nMajor histological findings at the interim necropsy (100 mg/kg) included generalized lymphoid depletion, pulmonary edema/inflammation and testicular seminiferous tubule degeneration. All findings except testicular degeneration were reversible (˜14 days) in this study; the reversibility period was not long enough to assess reversibility of testicular changes. […] The STD10 was 30 mg/kg."}, "EGFR(L861Q)": {"molecular_target": "EGFR(L861Q) (Homo sapiens, UniProt P00533, L861Q)", "experiment": "Kinase binding constant (Kd)", "source_text": "(§1) EGFR amplifications and/or mutations are common in GBM, estimated to occur in over 50% of patients."}, "EGFR(L858R)": {"molecular_target": "EGFR(L858R) (Homo sapiens, UniProt P00533, L858R)", "experiment": "Kinase binding constant (Kd)", "source_text": "as §1"}, "EGFR": {"molecular_target": "EGFR (Homo sapiens, UniProt P00533)", "sequence (P00533 25-1210)": "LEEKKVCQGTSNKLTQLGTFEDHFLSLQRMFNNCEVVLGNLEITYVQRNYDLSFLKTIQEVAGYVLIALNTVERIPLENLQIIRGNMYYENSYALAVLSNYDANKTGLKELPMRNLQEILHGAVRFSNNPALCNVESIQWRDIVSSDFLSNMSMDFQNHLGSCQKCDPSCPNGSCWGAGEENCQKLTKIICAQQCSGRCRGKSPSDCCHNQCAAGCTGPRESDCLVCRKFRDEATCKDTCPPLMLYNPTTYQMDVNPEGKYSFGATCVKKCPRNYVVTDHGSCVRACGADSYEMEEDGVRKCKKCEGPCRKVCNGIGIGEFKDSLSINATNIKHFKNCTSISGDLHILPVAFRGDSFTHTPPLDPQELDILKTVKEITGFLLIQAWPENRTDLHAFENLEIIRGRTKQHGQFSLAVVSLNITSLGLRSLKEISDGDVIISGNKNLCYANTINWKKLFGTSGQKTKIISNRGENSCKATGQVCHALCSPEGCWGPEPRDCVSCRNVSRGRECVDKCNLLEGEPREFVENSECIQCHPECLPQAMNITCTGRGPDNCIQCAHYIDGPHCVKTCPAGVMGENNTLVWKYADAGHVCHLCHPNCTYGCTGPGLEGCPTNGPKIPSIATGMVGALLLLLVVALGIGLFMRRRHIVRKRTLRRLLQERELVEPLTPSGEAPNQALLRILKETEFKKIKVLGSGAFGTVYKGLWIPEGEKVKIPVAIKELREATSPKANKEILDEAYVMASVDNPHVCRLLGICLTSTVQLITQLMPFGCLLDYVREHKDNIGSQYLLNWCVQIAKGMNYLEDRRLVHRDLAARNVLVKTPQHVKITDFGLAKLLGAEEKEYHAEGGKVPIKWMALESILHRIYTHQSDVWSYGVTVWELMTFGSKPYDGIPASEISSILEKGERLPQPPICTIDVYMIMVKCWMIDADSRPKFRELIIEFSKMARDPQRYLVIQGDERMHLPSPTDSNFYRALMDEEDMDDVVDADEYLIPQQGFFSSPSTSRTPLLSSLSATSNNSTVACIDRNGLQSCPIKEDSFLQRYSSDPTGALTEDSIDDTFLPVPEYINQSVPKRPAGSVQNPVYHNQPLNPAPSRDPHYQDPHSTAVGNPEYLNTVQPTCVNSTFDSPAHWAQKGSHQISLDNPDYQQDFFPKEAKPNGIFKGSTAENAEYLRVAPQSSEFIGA", "experiment": "Kinase binding constant (Kd)", "source_text": "as §1"}, "[4]": {"molecular_target": "EGFR(L747-S752del, P753S) (Homo sapiens, UniProt P00533, DEL747-752/P753S)", "experiment": "Kinase binding constant (Kd)", "source_text": "as §1"}, "EGFR(T790M)": {"molecular_target": "EGFR(T790M) (Homo sapiens, UniProt P00533, T790M)", "sequence (P00533 25-1210 T790M)": "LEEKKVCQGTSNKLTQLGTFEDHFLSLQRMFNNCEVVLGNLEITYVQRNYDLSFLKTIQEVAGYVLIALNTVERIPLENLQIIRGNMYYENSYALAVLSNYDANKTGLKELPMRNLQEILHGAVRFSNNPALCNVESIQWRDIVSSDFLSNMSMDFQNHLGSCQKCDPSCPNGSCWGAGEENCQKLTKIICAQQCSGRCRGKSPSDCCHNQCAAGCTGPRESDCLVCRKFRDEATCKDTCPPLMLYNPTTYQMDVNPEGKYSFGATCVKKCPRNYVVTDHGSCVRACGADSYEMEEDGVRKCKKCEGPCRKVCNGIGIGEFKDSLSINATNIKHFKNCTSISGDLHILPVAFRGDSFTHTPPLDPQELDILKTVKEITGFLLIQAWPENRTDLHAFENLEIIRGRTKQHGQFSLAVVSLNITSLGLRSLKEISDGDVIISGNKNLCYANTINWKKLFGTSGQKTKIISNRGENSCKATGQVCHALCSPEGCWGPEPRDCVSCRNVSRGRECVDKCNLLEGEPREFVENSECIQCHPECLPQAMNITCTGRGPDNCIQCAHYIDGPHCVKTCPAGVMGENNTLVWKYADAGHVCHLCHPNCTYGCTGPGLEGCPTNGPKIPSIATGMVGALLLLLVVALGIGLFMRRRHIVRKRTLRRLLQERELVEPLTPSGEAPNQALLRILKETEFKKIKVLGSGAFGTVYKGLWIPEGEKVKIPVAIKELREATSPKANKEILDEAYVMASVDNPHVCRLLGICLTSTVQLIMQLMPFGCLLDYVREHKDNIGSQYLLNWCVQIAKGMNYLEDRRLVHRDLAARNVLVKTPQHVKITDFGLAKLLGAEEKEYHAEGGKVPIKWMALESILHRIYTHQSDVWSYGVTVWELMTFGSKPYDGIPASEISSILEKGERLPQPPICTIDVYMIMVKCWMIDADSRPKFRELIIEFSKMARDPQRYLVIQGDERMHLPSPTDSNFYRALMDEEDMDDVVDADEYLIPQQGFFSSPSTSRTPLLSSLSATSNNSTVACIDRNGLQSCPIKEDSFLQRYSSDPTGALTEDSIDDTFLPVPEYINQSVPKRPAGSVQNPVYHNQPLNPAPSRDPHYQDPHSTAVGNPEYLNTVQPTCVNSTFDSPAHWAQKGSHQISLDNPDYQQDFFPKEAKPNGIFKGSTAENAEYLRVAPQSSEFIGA", "experiment": "Kinase binding constant (Kd)", "source_text": "as §1"}, "ERBB4": {"molecular_target": "ERBB4 (Homo sapiens, UniProt Q15303)", "experiment": "Kinase binding constant (Kd)", "source_text": "as §1"}, "EGFR(S752-I759del)": {"molecular_target": "EGFR(S752-I759del) (Homo sapiens, UniProt P00533, DEL752-759)", "experiment": "Kinase binding constant (Kd)", "source_text": "as §1"}, "EGFR(L858R,T790M)": {"molecular_target": "EGFR(L858R,T790M) (Homo sapiens, UniProt P00533, L858R/T790M)", "experiment": "Kinase binding constant (Kd)", "source_text": "as §1"}, "ERBB2": {"molecular_target": "ERBB2 (Homo sapiens, UniProt P04626)", "experiment": "Kinase binding constant (Kd)", "source_text": "as §1"}, "EGFR(E746-A750del)": {"molecular_target": "EGFR(E746-A750del) (Homo sapiens, UniProt P00533, DEL746-750)", "sequence (P00533 with tags, fused parts or gaps DEL746-750)": "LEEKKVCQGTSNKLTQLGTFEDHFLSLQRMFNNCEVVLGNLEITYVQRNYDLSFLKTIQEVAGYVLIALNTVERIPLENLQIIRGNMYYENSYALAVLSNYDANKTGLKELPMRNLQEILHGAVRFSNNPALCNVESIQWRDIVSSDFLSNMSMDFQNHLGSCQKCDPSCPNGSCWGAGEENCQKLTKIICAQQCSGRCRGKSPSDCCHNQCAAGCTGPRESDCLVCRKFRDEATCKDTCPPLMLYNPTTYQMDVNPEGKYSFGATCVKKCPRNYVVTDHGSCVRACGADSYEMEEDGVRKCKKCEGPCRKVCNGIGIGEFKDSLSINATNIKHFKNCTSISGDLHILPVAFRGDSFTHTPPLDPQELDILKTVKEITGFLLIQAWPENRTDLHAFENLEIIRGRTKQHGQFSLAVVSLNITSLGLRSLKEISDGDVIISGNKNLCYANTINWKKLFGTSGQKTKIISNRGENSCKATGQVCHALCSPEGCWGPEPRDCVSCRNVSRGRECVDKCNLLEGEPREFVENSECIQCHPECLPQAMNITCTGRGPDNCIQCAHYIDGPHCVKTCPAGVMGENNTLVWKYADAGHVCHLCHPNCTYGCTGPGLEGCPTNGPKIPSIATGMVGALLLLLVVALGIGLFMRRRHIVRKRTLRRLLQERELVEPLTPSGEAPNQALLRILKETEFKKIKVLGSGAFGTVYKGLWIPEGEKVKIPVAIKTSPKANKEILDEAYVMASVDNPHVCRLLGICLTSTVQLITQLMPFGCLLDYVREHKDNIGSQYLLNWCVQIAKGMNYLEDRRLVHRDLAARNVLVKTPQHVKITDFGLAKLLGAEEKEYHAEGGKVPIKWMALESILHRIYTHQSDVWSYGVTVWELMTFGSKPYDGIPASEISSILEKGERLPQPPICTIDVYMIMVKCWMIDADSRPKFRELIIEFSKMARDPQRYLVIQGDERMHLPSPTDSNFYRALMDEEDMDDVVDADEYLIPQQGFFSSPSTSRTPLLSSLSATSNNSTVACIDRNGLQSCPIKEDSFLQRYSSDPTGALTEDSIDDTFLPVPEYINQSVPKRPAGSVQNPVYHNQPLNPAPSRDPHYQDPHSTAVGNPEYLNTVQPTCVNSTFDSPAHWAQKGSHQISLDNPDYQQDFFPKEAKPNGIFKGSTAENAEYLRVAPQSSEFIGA", "experiment": "Kinase binding constant (Kd)", "source_text": "as §1"}, "EGFR(G719S)": {"molecular_target": "EGFR(G719S) (Homo sapiens, UniProt P00533, G719S)", "experiment": "Kinase binding constant (Kd)", "source_text": "as §1"}, "EGFR(G719C)": {"molecular_target": "EGFR(G719C) (Homo sapiens, UniProt P00533, G719C)", "experiment": "Kinase binding constant (Kd)", "source_text": "as §1"}, "EGFR(L747-T751del,Sins)": {"molecular_target": "EGFR(L747-T751del,Sins) (Homo sapiens, UniProt P00533, DELINS747-751S)", "experiment": "Kinase binding constant (Kd)", "source_text": "as §1"}, "[5]": {"molecular_target": "EGFR(L747-E749del, A750P) (Homo sapiens, UniProt P00533, A750P/DEL747-749)", "sequence (P00533 with tags, fused parts or gaps DEL747-749/A750P)": "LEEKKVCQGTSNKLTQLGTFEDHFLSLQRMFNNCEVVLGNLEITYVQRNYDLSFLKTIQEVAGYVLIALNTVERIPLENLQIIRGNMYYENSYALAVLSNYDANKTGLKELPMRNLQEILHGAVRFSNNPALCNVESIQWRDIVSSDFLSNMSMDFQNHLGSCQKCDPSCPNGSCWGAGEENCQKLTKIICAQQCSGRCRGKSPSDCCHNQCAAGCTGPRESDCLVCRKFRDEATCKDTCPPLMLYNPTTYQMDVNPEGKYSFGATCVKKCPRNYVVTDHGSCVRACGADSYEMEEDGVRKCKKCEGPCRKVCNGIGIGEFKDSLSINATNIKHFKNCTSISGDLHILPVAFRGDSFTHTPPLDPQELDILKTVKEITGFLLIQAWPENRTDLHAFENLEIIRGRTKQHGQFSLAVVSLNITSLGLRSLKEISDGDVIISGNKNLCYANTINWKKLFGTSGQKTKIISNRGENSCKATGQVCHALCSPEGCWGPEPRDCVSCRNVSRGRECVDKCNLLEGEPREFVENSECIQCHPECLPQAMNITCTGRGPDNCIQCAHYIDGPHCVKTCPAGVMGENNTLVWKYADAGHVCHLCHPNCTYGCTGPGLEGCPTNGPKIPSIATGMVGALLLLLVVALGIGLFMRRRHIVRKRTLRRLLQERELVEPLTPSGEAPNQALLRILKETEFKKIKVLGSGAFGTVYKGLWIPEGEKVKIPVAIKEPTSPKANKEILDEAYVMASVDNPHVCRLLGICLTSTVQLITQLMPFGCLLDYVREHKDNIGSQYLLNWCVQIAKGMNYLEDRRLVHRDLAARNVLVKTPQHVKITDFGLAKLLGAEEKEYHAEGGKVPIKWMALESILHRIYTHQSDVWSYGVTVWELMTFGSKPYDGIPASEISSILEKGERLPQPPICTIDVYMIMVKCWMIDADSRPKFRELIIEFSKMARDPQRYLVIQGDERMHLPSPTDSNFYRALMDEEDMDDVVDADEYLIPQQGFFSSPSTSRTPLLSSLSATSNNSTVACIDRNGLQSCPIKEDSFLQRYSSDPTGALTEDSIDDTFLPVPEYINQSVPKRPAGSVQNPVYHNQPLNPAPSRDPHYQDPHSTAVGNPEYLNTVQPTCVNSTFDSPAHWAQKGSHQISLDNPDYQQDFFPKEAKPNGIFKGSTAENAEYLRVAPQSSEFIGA", "experiment": "Kinase binding constant (Kd)", "source_text": "as §1"}, "[6]": {"experiment": "H1975 SQ lung tumor xenograft in NOD.SCID mice", "format": "in vivo", "conditions": "NOD.SCID, mouse, plasma; H1975 model, 4 hours post-dose, oral; read-out: plasma concentration at which anti-tumor activity was noted", "protocol": "(§2) Compound 1 was also evaluated in xenograft models of lung tumor cell lines harboring EGFR single and double mutations in the mouse."}, "[7]": {"test_system": "H1975 cells: EGFR L858R-T790M", "experiment": "H1975 SQ lung tumor xenograft in NOD.SCID mice", "format": "in vivo", "conditions": "H1975 lung tumor implants, oral", "protocol": "as §2"}}, "note": "“And” between values parts separate entries of the source, which are not always exact repeats. Identical values can stand only once. “Also recorded” adds a separate entry of the source. Like-named read-outs stand apart in the source and are kept apart here.", "data": [{"molecule": "C=CC(=O)Nc1cc(Nc2nccc(-n3ccc4cccnc43)n2)c(OC)cc1N(C)CCN(C)C", "note": "[Compound 1, N-(5-((4-(1H-pyrrolo[2,3-b]pyridin-1-yl)pyrimidin-2-yl)amino)-2-((2-(dimethylamino)ethyl)(methyl)amino)-4-methoxyphenyl)acrylamide]", "values": [{"measurement": "clearance", "setting": "[1]", "result": "moderately high clearance; also recorded: moderately high-clearance; also recorded: Moderate high-clearance"}, {"measurement": "volume of distribution", "setting": "[1]", "result": "large volume of distribution"}, {"measurement": "clearance", "setting": "[1]; listed as Compound 11", "result": "relatively high clearance rate"}, {"measurement": "bioavailability", "setting": "[1]; rat, in vivo, po", "result": "~50", "unit": "%"}, {"measurement": "half-life", "setting": "[1]; rat, plasma, Compound 2 as metabolite", "result": "~5", "unit": "h"}, {"measurement": "Tmax", "setting": "[1]; rat, plasma, po, Compound 2 as metabolite", "result": "~5", "unit": "h"}, {"measurement": "bioavailability", "setting": "[1]; rat, plasma, po", "result": 50, "unit": "%"}, {"measurement": "phosphorylation of EGFRvIII, ERK1/2 and S6RP", "setting": "[2]", "result": "markedly reduced phosphorylation; also recorded: Marked"}, {"measurement": "NOAEL at 28 days", "setting": "[3]; both sexes, Sprague-Dawley, in vivo, oral, 4-week Rat toxicology", "result": 10, "unit": "mg/kg"}, {"measurement": "NOEL for testicular lesions", "setting": "[3]; both, Sprague-Dawley, rat, in vivo", "result": 10, "unit": "mg/kg"}, {"measurement": "STD10", "setting": "[3]; both, Sprague-Dawley, rat, in vivo, po", "result": 30, "unit": "mg/kg"}, {"measurement": "NOEL for myocardial risk", "setting": "[3]; rat", "result": 100, "unit": "mg/kg"}, {"measurement": "toxicity at 10 mg/kg", "setting": "[3]; rat, in vivo, po, 10 mg/kg", "result": "No toxicity"}, {"measurement": "Kd", "setting": "EGFR(L861Q)", "result": 3.9, "unit": "nM"}, {"measurement": "Kd", "setting": "EGFR(L858R)", "result": 4.6, "unit": "nM"}, {"measurement": "activity against wild-type EGFR", "setting": "EGFR", "result": "little activity"}, {"measurement": "Kd", "setting": "EGFR; EGFR wild type", "result": 4.9, "unit": "nM"}, {"measurement": "Kd", "setting": "[4]", "result": 3.1, "unit": "nM"}, {"measurement": "Kd", "setting": "EGFR(T790M)", "result": 0.15, "unit": "nM"}, {"measurement": "Kd", "setting": "ERBB4", "result": 11, "unit": "nM"}, {"measurement": "Kd", "setting": "EGFR(S752-I759del)", "result": 2.9, "unit": "nM"}, {"measurement": "Kd", "setting": "EGFR(L858R,T790M)", "result": 0.11, "unit": "nM"}, {"measurement": "Kd", "setting": "ERBB2", "result": 11, "unit": "nM"}, {"measurement": "Kd", "setting": "EGFR(E746-A750del)", "result": 0.7, "unit": "nM"}, {"measurement": "Kd", "setting": "EGFR(G719S)", "result": 1.7, "unit": "nM"}, {"measurement": "Kd", "setting": "EGFR(G719C)", "result": 2.2, "unit": "nM"}, {"measurement": "Kd", "setting": "EGFR(L747-T751del,Sins)", "result": 2, "unit": "nM"}, {"measurement": "Kd", "setting": "[5]", "result": 0.97, "unit": "nM"}, {"measurement": "concentration at 4 h", "setting": "[6]", "result": "800 ng/mL and 1.6 µM"}, {"measurement": "tumor response", "setting": "[7]", "result": "substantial tumor regression"}]}]}
